For orientation: IC50 means the midpoint of a concentration-inhibition curve.

Like-named read-outs stand apart in the source and are kept apart here.

The assay addresses human TRPA1 channel (Homo sapiens (Human), UniProt O75762). Kind of assay: hTRPA1 CHO Ca2+ FLIPR Tetra assay: block of cinnamaldehyde induced calcium influx. The note with it: CHO cells expressing TRPA1, Hill coefficient fixed to 1.5. It counts as cell-based. On the procedure:
CHO cells expressing TRPA1 were plated into 384-well plates, incubated overnight at 37° C., and loaded with BD calcium indicator dye for 1 hr at 37° C. followed by 15 minutes at room temperature. The assay buffer was Hank's Balanced Salt Solution (HBSS) containing 20 mM HEPES (pH readjusted to 7.4) along with 0.02% BSA.
Following dye load and plate cool down, compounds were added to the cells using FLIPR Tetra. Plates were then incubated with compounds for 10 minutes or 90 minutes at room temperature prior to adding agonist. Following this incubation, about an EC80 concentration of cinnamaldehyde […] was added to active the channels and block of cinnamaldehyde induced calcium influx was measured.
Fixing the Hill coefficient will generally reduce variability of the IC50 determination. The IC50 results were individually examined to make sure the MIN and MAX points were set correctly prior to validation of the results.

[1] abbreviates: hTRPA1 IC50 10 min, 10 minutes incubation with compound before cinnamaldehyde (about EC80).
The mark [2] stands for this setting: hTRPA1 IC50 90 min, 90 minutes incubation with compound before cinnamaldehyde (about EC80).
[3] abbreviates: read-out: hTRPA1 IC50 10 min, 10 minutes incubation with compound before cinnamaldehyde (about EC80).
Where [4] appears, read: read-out: hTRPA1 IC50 90 min, 90 minutes incubation with compound before cinnamaldehyde (about EC80).

human TRPA1 channel, sequence (O75762 whole entry): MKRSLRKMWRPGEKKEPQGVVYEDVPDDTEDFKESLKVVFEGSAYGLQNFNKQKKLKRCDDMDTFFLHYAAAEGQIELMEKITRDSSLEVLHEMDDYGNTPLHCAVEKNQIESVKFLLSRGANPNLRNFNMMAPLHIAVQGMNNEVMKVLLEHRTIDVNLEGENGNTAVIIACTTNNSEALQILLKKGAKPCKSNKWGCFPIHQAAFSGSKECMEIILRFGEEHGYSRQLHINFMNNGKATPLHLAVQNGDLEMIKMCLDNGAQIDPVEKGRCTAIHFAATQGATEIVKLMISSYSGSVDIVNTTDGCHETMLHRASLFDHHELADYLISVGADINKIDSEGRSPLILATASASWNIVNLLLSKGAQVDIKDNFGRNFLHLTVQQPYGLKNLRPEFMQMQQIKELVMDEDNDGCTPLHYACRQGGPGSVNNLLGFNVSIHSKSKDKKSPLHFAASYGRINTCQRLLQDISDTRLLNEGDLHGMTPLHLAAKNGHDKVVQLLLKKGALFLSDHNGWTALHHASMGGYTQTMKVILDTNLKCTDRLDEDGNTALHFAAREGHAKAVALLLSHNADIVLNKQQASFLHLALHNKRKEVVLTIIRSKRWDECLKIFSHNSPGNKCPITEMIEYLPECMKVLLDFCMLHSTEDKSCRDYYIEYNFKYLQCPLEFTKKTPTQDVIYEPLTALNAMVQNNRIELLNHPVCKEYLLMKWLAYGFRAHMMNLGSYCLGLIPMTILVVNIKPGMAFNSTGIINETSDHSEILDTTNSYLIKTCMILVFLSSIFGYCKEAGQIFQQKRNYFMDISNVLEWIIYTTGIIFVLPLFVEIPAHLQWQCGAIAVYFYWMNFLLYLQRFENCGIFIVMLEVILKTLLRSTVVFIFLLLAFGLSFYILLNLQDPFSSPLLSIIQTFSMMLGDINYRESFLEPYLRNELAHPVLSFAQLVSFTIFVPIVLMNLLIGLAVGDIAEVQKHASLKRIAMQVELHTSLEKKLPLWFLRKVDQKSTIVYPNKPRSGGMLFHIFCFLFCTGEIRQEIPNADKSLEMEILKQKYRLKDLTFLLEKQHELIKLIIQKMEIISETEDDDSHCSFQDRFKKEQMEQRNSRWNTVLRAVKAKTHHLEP

`Cc1nc2nc(N)n(C)c2c(=O)n1Cc1nc([C@@H]2CO[C@@H](c3ccc(Cl)cc3)C2)no1` (racemic) [Example 113, 8-amino-2,7-dimethyl-1-[[3-[rac-(3R,5R)-5-(4-chlorophenyl)tetrahydro-furan-3-yl]-1,2,4-oxadiazol-5-yl]methyl] purin-6-one]: the half-maximal inhibitory concentration (IC50) reads like this: under setting [1], 123 nM; under setting [2], 14 nM.

With `Cc1nc2nc(N)n(Cc3nc([C@@H]4CO[C@@H](c5ccc(Cl)cc5)C4)no3)c(=O)c2n1C` (racemic) [Example 152, 2-amino-7,8-dimethyl-1-[[3-[rac-(3R,5R)-5-(4-chlorophenyl)tetrahydro-furan-3-yl]-1,2,4-oxadiazol-5-yl]methyl]purin-6-one], the IC50 is, setting by setting: under setting [1], 43.1 nM; under setting [2], 6.2 nM.

Consider `Cn1c(=O)oc2ncn(Cc3nc([C@@H]4CO[C@@H](c5ccc(Cl)cc5)C4)no3)c(=O)c21` (racemic) [Example 153, 1-methyl-6-[[3-[rac-(3R,5R)-5-(4-chlorophenyl)tetrahydro-furan-3-yl]-1,2,4-oxadiazol-5-yl]methyl] oxazolo[5,4-d] pyrimidine-2,7-dione], for which the IC50 under setting [1] stood at 6.35 nM and the IC50 under setting [2] was 1.8 nM.

`Nc1nc2ncsc2c(=O)n1Cc1nc([C@@H]2CO[C@@H](c3ccc(F)cc3)C2)no1` (racemic) [Example 154, 5-amino-6-[[3-[rac-(3R,5R)-5-(4-fluorophenyl)tetrahydro-furan-3-yl]-1,2,4-oxadiazol-5-yl]methyl]thiazolo[4,5-d]pyrimidin-7-one]: the IC50 under setting [2] came out at 2.3 nM.

As to `Cn1nnc2nc(N)n(Cc3nc([C@@H]4CO[C@@H](c5ccc(Cl)cc5)C4)no3)c(=O)c21` (racemic) [Example 156, 5-amino-1-methyl-6-[[3-[rac-(3R,5R)-5-(4-chlorophenyl)tetrahydro-furan-3-yl]-1,2,4-oxadiazol-5-yl]methyl]triazolo[4,5-d]pyrimidin-7-one], the IC50 runs as follows: under setting [1], 16.1 nM; under setting [2], 2.1 nM.

As to `Cn1cnc2nc(N)n(Cc3nc([C@@H]4CO[C@@H](c5ccc(F)cc5)C4)no3)c2c1=O` (racemic) [Example 157, 8-amino-1-methyl-7-[[3-[rac-(3R,5R)-5-(4-fluorophenyl)tetrahydro-furan-3-yl]-1,2,4-oxadiazol-5-yl]methyl]purin-6-one], the IC50 was 470 nM under setting [1] and 87 nM under setting [2].

As for `Nc1nc2ncsc2c(=O)n1Cc1nc([C@@H]2CO[C@@H](c3ccc(Cl)cc3)C2)no1` (racemic) [Example 158, 5-amino-6-[[3-[rac-(3R,5R)-5-(4-chlorophenyl)tetrahydro-furan-3-yl]-1,2,4-oxadiazol-5-yl]methyl]thiazolo[4,5-d]pyrimidin-7-one], the concentration for half-maximal inhibition (IC50) is, setting by setting: under setting [1], 5.73 nM; under setting [2], 1.4 nM.

On to `Cc1cnn2nc(N)n(Cc3nc([C@@H]4CO[C@@H](c5ccc(F)cc5)C4)no3)c(=O)c12` [Example 3, 2-amino-3-((3-((3R,5R)-5-(4-fluorophenyl)tetrahydrofuran-3-yl)-1,2,4-oxadiazol-5-yl)methyl)-5-methylpyrazolo[5,1-f][1,2,4]triazin-4(3H)-one], for which the 50% inhibitory concentration (IC50) worked out at 5.02 nM under setting [3] and 1.3 nM under setting [4].

Regarding `Cn1cnc2[nH]c(=O)n(Cc3nc([C@@H]4CO[C@@H](c5ccc(Cl)cc5)C4)no3)c(=O)c21` [Example 7, 1-((3-((3R, 5R)-5-(4-chlorophenyl)-tetrahydrofuran-3-yl)-1,2,4-oxadiazol-5-yl)methyl)-7-methyl-1H-purine-2,6(3H,7H)-dione], the IC50 runs as follows: under setting [3], 313 nM; under setting [4], 23 nM.

Turning to `Cc1nc2ncn(C)c2c(=O)n1Cc1nc([C@@H]2CO[C@@H](c3ccc(Cl)cc3)C2)no1` [Example 8, 1-((3-((3R,5R)-5-(4-chlorophenyl)tetrahydrofuran-3-yl)-1,2,4-oxadiazol-5-yl)methyl)-2,7-dimethyl-1H-purin-6(7H)-one], the half-maximal inhibitory concentration (IC50) by setting is: under setting [1], 9.38 nM; under setting [4], 4.1 nM.

Take `Cn1c(=O)[nH]c2ncn(Cc3nc([C@@H]4CO[C@@H](c5ccc(Cl)cc5)C4)no3)c(=O)c21` [Example 9, 1-((3-((3R, 5R)-5-(4-chlorophenyl)-tetrahydrofuran-3-yl)-1,2,4-oxadiazol-5-yl)methyl)-7-methyl-1H-purine-6,8(7H,9H)-dione]: the 50% inhibitory concentration (IC50) reads like this: under setting [3], 40.4 nM; under setting [4], 11 nM.

Consider `Cn1cnc2ncn(Cc3nc([C@@H]4CO[C@@H](c5cccc(F)c5)C4)no3)c(=O)c21` [Example 10, 1-((3-((3R,5R)-5-(3-fluorophenyl)tetra-hydrofuran-3-yl)-1,2,4-oxadiazol-5-yl)methyl)-7-methyl-1,7-dihydro-6H-purin-6-one], for which the IC50 reads like this: under setting [3], 27.4 nM; under setting [4], 17 nM.

For `O=c1c2cccnc2cnn1Cc1nc([C@@H]2CO[C@@H](c3ccc(F)cc3)C2)no1` [Example 11, 6-((3-((3R,5R)-5-(4-fluorophenyl)tetra-hydrofuran-3-yl)-1,2,4-oxadiazol-5-yl)methyl)pyrido[2,3-d]pyridazin-5(6H)-one], the IC50 runs as follows: under setting [3], 16.6 nM; under setting [4], 13 nM.

For the compound `Cn1nnc2ncn(Cc3nc([C@@H]4CO[C@@H](c5ccc(F)cc5)C4)no3)c(=O)c21` [Example 12, 6-((3-((3R,5R)-5-(4-fluorophenyl)tetra-hydrofuran-3-yl)-1,2,4-oxadiazol-5-yl)methyl)-1-methyl-1,6-dihydro-7H-[1,2,3]triazolo[4,5-d]pyrimidin-7-one], the half-inhibitory concentration (IC50) reads like this: under setting [3], 7.55 nM; under setting [4], 3.4 nM.

Turning to `Cn1cnc2ncn(Cc3nc([C@@H]4CO[C@@H](c5ccccc5)C4)no3)c(=O)c21` [Example 13, 7-methyl-1-((3-((3R,5R)-5-phenyltetrahydrofuran-3-yl)-1,2,4-oxadiazol-5-yl)methyl)-1,7-dihydro-6H-purin-6-one], the IC50 reads like this: under setting [3], 82.3 nM; under setting [4], 33 nM.

As for `Cn1cnc2ncn(Cc3nc([C@@H]4CO[C@@H](c5ccccc5Cl)C4)no3)c(=O)c21` [Example 14, 1-((3-((3R,5R)-5-(2-chlorophenyl)tetra-hydrofuran-3-yl)-1,2,4-oxadiazol-5-yl)methyl)-7-methyl-1,7-dihydro-6H-purin-6-one], the 50% inhibitory concentration (IC50) runs as follows: under setting [3], 335 nM; under setting [4], 160 nM.

Turning to `Cn1cnc2ncn(Cc3nc([C@@H]4CO[C@@H](c5ccccc5F)C4)no3)c(=O)c21` [Example 15, 1-((3-((3R,5R)-5-(2-fluorophenyl)tetrahydro-furan-3-yl)-1,2,4-oxadiazol-5-yl)methyl)-7-methyl-1,7-dihydro-6H-purin-6-one], the IC50 by setting is: under setting [3], 127 nM; under setting [4], 59 nM.

In the case of `Cn1nnc2ncn(Cc3nc([C@@H]4CO[C@@H](c5ccc(Cl)cc5)C4)no3)c(=O)c21` [Example 16, 6-((3-((3R,5R)-5-(4-chlorophenyl)tetra-hydrofuran-3-yl)-1,2,4-oxadiazol-5-yl)methyl)-1-methyl-1,6-dihydro-7H-[1,2,3]triazolo[4,5-d]pyrimidin-7-one], the concentration for half-maximal inhibition (IC50) was 4.9 nM under setting [3] and 2.7 nM under setting [4].

Take `Cn1cnc2ncn(Cc3nc([C@@H]4CO[C@@H](c5cccc(Cl)c5)C4)no3)c(=O)c21` [Example 17, 1-((3-((3R,5R)-5-(3-chlorophenyl)tetrahydro-furan-3-yl)-1,2,4-oxadiazol-5-yl)methyl)-7-methyl-1,7-dihydro-6H-purin-6-one]: the half-maximal inhibitory concentration (IC50) by setting is: under setting [3], 29.5 nM; under setting [4], 14 nM.

As for `Cn1cnc2ncn(Cc3nc([C@@H]4CO[C@@H](c5ccc(F)c(F)c5)C4)no3)c(=O)c21` [Example 18, 1-((3-((3R,5R)-5-(3,4-difluorophenyl)tetra-hydrofuran-3-yl)-1,2,4-oxadiazol-5-yl)methyl)-7-methyl-1,7-dihydro-6H-purin-6-one], the IC50 was determined as 173 nM under setting [3] and 130 nM under setting [4].

`Cn1cnc2ncn(Cc3nc([C@@H]4CO[C@@H](c5ccc(OC(F)F)cc5)C4)no3)c(=O)c21` [Example 19, 1-((3-((3R,5R)-5-(4-(difluoromethoxy)phenyl)tetrahydrofuran-3-yl)-1,2,4-oxadiazol-5-yl)methyl)-7-methyl-1,7-dihydro-6H-purin-6-one]: the IC50 is 150 nM under setting [3] and 110 nM under setting [4].

Consider `Cc1ccnc2ncn(Cc3nc([C@@H]4CO[C@@H](c5ccc(F)cc5)C4)no3)c(=O)c12` [Example 20, 3-((3-((3R,5R)-5-(4-fluorophenyl)tetrahydro-furan-3-yl)-1,2,4-oxadiazol-5-yl)methyl)-5-methylpyrido[2,3-d]pyrimidin-4(3H)-one], for which the IC50 reads like this: under setting [3], 7.05 nM; under setting [4], 3.6 nM.

In the case of `Cn1cnc2ncn(Cc3nc([C@@H]4CO[C@@H](c5ccc(OC(F)(F)F)cc5)C4)no3)c(=O)c21` [Example 21, 7-methyl-1-((3-((3R,5R)-5-(4-(trifluoromethoxy)phenyl)tetrahydro-furan-3-yl)-1,2,4-oxadiazol-5-yl)methyl)-1,7-dihydro-6H-purin-6-one], the half-maximal inhibitory concentration (IC50) runs as follows: under setting [3], 98.5 nM; under setting [4], 67 nM.

The record behind these values is patent publication US10710994B2, “Oxadiazole transient receptor potential channel inhibitors” (Genentech, Inc., priority 2018, dated 2020).
